Test results taken from patent US20060293223A1 (Eli Lilly and Company Patent Division, priority 2003, published 2006).
Positions of bridges follow the written chain, without caps; N, C: chain ends. Non-standard residues stand in square brackets, D forms with d. No end group written: not given here. hCys = N[C@@H](CCS)C(=O)O

What follows are substances tested on MC1/MC4. Conditions: ratio MC1/MC4.
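Also: ratio of EC50 values obtained at MC1 versus MC4 receptors, with MC1 potency measured by luciferase reporter activity in stably transfected cells expressing human MC1.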

Substance	MC1/MC4 selectivity
Ac-Tyr-Arg-cyclo[Cys-Glu-(1-Me-His)-(4-OMe-D-Phe)-Arg-Trp-Cys]-NH2 [Compound 94]	16.97
Ac-nLeu-cyclo[hCys-His-D-Phe-Arg-Trp-Cys]-NH2 [Compound 160]	0.90
Ac-R[hCys]H[dF]RWC-OH (disulfide 2-7) [Compound 159]	49.41
Ac-Tyr-Arg-cyclo[Cys-Glu-(1-Bom-His)-D-Phe-Arg-Trp-Cys]-NH2 [Compound 101]	0.97
Ac-CDH[dF]RWC-NH2 (disulfide 1-7) [Compound 6]	35.74
Ac-cyclo(S—CH2—S)[Cys-His-D-Phe-Arg-Trp-Cys]-NH2 [Compound 198]	13.07
Ac-cyclo[Cys-His-D-Phe-Arg-Trp-hCys]-NH2 [Compound 183]	53.39
Ac-CQH[dF]RWC-NH2 (disulfide 1-7) [Compound 8]	3.33
Ac-CH[dF]RWC-NH2 (disulfide 1-6) [Compound 1]	3.91
Ac-YRCQH[dF]RWC-OH (disulfide 3-9) [Compound 9]	10.00
Ac-Lys(ipr)-cyclo[Cys-Glu-His-D-Phe-Arg-Trp-Cys]-NH2 [Compound 59]	20.92
Ac-D-Arg-cyclo[Cys-Glu-His-D-Phe-Arg-Trp-Cys]-NH2 [Compound 52]	30.54
Arg-cyclo[Cys-Glu-His-D-Phe-Arg-Trp-Cys]-OH [Compound 45]	30.47
Ac-Tyr-Arg-cyclo[Cys-Glu-(1-pyrazolyl-Ala)-D-Phe-Arg-Trp-Cys]-NH2 [Compound 102]	4.76
Ac-Tyr-Arg-cyclo[Cys-Glu-(1-Me-D-His)-(4-OMe-D-Phe)-Arg-Trp-Cys]-NH2 [Compound 95]	3.21
3-guanidinopropionyl-cyclo[Cys-Glu-His-D-Phe-Arg-Trp-Cys]-NH2 [Compound 40]	25.92
cyclo[3-thiopropionyl-His-D-Phe-Arg-Trp-hCys]-NH2 [Compound 179]	5.35
N-succinyl-Tyr-Arg-cyclo[Cys-Glu-His-D-Phe-Arg-Trp-Cys]-OH [Compound 131]	7.00
Ac-cyclo[Cys-Glu-(1-Me-His)-D-Phe-Arg-Trp-Cys]-NH2 [Compound 34]	11.52
cyclo[hCys-His-D-Phe-Arg-Trp-Cys]-NH2 [Compound 132]	77.32
N-hexanoyl-cyclo[hCys-His-D-Phe-Arg-Trp-Cys]-NH2 [Compound 145]	3.82
Ac-Tyr-Arg-cyclo[Cys-Glu-(1-benzyl-His)-D-Phe-Arg-Trp-Cys]-NH2 [Compound 99]	88.42
Ac-Tyr-Arg-cyclo[Cys-Glu-(1-Me-D-His)-(4-Br-D-Phe)-Arg-Trp-Cys]-NH2 [Compound 91]	21.14
Ac-YR[hCys]H[dF]RWC-OH (disulfide 3-8) [Compound 165]	13.53
Ac-RCH[dF]RW[hCys]-NH2 (disulfide 2-7) [Compound 189]	23.31
Ac-cyclo[Cys-His-(4-Cl-D-Phe)-Arg-Trp-hCys]-NH2 [Compound 185]	269.59

Substance	MC1/MC4 selectivity
Ac-YRCEH[dF]RWCE-NH2 (disulfide 3-9) [Compound 118]	4.52
N-glutaryl-Tyr-Arg-cyclo[Cys-Glu-His-D-Phe-Arg-Trp-Cys]-OH [Compound 76]	6.00
Ac-Tyr-Arg-cyclo[Cys-Glu-His-D-Phe-Arg-Trp-Cys]-Ser-Pro alcohol [Compound 120]	1.00
cyclo[hCys-His-D-Phe-Arg-Trp-Cys]-OH [Compound 133]	31.29
[dR][hCys]H[dF]RWC-NH2 (disulfide 2-7) [Compound 154]	36.00
Ac-Tyr-Arg-cyclo[D-Cys-Glu-His-D-Phe-Arg-Trp-Cys]-NH2 [Compound 80]	8.24
Ac-CLH[dF]RWC-NH2 (disulfide 1-7) [Compound 15]	14.75
Ac-Cit-cyclo[Cys-Glu-(1-Me-His)-D-Phe-Arg-Trp-Cys]-NH2 [Compound 56]	21.38
Ac-Tyr-hArg-cyclo[Cys-Glu-His-D-Phe-Arg-Trp-Cys]-NH2 [Compound 126]	22.64
Ac-Tyr-Arg-cyclo[Cys-Glu-His-D-Phe-Arg-Trp-Cys]-NH-(CH2)6-NH2 [Compound 117]	1.00
Ac-Arg-cyclo[Cys-Glu-(1-Me-His)-(4-Cl-D-Phe)-Arg-Trp-Cys]-NH2 [Compound 87]	316.25
Ac-cyclo[Cys-Glu-His-(4-Cl-D-Phe)-Arg-Trp-Cys]-NH2 [Compound 32]	66.88
N-propionyl-cyclo[Cys-Glu-His-D-Phe-Arg-Trp-Cys]-NH2 [Compound 37]	36.99
3-(4-hydroxyphenyl)propionyl-Arg-cyclo[Cys-Glu-His-D-Phe-Arg-Trp-Cys]-NH2 [Compound 66]	13.23
Ac-Tyr-Arg-cyclo[Cys-Glu-His-D-Phe-Arg-Trp-hCys]-NH2 [Compound 192]	1.00
Ac-Tyr-Arg-cyclo[Cys-Glu-(5-Me-His)-D-Phe-Arg-Trp-Cys]-NH2 [Compound 97]	8.03
Ac-Tyr-Arg-cyclo[Cys-Glu-His-(4-OMe-D-Phe)-Arg-Trp-Cys]-NH2 [Compound 93]	1.48
N-cyclobutanecarbonyl-cyclo[hCys-His-D-Phe-Arg-Trp-Cys]-NH2 [Compound 142]	35.55
Ac-YRCQH[dF]RWC-OMe (disulfide 3-9) [Compound 10]	9.50
Ac-Tyr-Arg-cyclo[Cys-Glu-His-(4-Cl-D-Phe)-Arg-Trp-Cys]-NH2 [Compound 86]	66.21
Ac-cyclo[hCys-His-(4-Cl-D-Phe)-Arg-Trp-Cys]-NH2 [Compound 140]	128.15
Ac-Tyr-Arg-cyclo[Cys-Cya-His-D-Phe-Arg-Trp-Cys]-NH2 [Compound 28]	26.35
Ac-Tyr-Arg-cyclo[Cys-Glu-His-(4-Br-D-Phe)-Arg-Trp-Cys]-NH2 [Compound 89]	71.43
Ac-Tyr-Arg-cyclo[Cys-Glu-(3-Me-His)-D-Phe-Arg-Trp-Cys]-NH2 [Compound 96]	20.87
Ac-Tyr-Arg-cyclo[Cys-Glu-His-D-Phe-Arg-Trp-Cys] alcohol [Compound 78]	9.00
Arg-cyclo[hCys-His-D-Phe-Arg-Trp-hCys]-NH2 [Compound 194]	10.61

Substance	MC1/MC4 selectivity
Ac-Tyr-Arg-cyclo[Cys-Glu-His-D-Phe-Arg-Trp-Cys]-OH [Compound 73]	12.77
N-cyclopentanecarbonyl-cyclo[hCys-His-D-Phe-Arg-Trp-penicillamine]-NH2 [Compound 171]	75.11
Ac-Tyr-Arg-cyclo[Cys-Glu-(1-Me-D-His)-(4-Cl-D-Phe)-Arg-Trp-Cys]-NH2 [Compound 88]	9.07
Ac-R[hCys]H[dF]RWC-NH2 (disulfide 2-7) [Compound 158]	50.25
Ac-Tyr-Arg-cyclo[Cys-Glu-(β-(pyridin-4-yl)-Ala)-D-Phe-Arg-Trp-Cys]-NH2 [Compound 113]	13.51
Ac-YRCYH[dF]RWC-NH2 (disulfide 3-9) [Compound 24]	8.00
Ac-YSCEH[dF]RWC-NH2 (disulfide 3-9) [Compound 129]	22.16
3-guanidinopropionyl-cyclo[hCys-His-D-Phe-Arg-Trp-Cys]-NH2 [Compound 148]	51.98
Ac-Tyr-Arg-cyclo[Cys-Glu-His-D-Phe-Arg-Trp-Cys]-Ser alcohol [Compound 116]	4.00
4-guanidinobutyryl-cyclo[Cys-Glu-His-D-Phe-Arg-Trp-Cys]-NH2 [Compound 41]	58.47
Ac-Tyr-Arg-cyclo[Cys-Glu-(1-Me-His)-D-Phe-Arg-Trp-Cys]-NH2 [Compound 81]	101.69
Ac-Tyr-Arg-cyclo[Cys-Glu-(β-((1-benzyl)-1,2,4-triazol-3-yl))-D-Ala)-D-Phe-Arg-Trp-Cys]-NH2 [Compound 108]	5.99
Ac-Tyr-Arg-cyclo[Cys-Glu-(1-Me-His)-(4-Br-D-Phe)-Arg-Trp-Cys]-NH2 [Compound 90]	237.22
cyclo[hCys-His-(4-F-D-Phe)-Arg-Trp-Cys]-NH2 [Compound 134]	68.42
Ac-Tyr-Cit-cyclo[Cys-Glu-His-D-Phe-Arg-Trp-Cys]-NH2 [Compound 124]	18.11
Ac-CEH[dF]RWCSP-NH2 (disulfide 1-7) [Compound 36]	1.22
Ac-D-Arg-cyclo[Cys-Cya-His-D-Phe-Arg-Trp-Cys]-NH2 [Compound 27]	30.11
N-valeryl-cyclo[Cys-Glu-His-D-Phe-Arg-Trp-Cys]-NH2 [Compound 39]	19.67
N-cyclohexanecarbonyl-cyclo[hCys-His-D-Phe-Arg-Trp-Cys]-NH2 [Compound 144]	14.85
Ac-YRCEH[dF]RWCKP-NH2 (disulfide 3-9) [Compound 121]	0.74
Ac-YVCEH[dF]RWC-NH2 (disulfide 3-9) [Compound 130]	26.88
Ac-YRCWH[dF]RWC-NH2 (disulfide 3-9) [Compound 23]	10.54
Ac-YRCEH[dF]RWCRF-NH2 (disulfide 3-9) [Compound 123]	2.42
N-butyryl-cyclo[Cys-Glu-His-D-Phe-Arg-Trp-Cys]-NH2 [Compound 38]	28.16
Ac-Tyr-Arg-cyclo[Cys-Glu-His-D-Phe-Arg-Trp-Cys]-2-(2-aminoethoxy)ethanol [Compound 115]	2.00
